Experimental data taken from PubChem BioAssay (NCI).
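A five-concentration, 48-hour dose response in 96-well plates underlies each endpoint, interpolated linearly between surrounding concentrations. GI50 = concentration required for 50% inhibition of growth. The concentration for full growth arrest is given as TGI.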

test system: 786-0 renal; test: growth of human tumour cells (NCI), 48 h

`COc1ccc2c(c1)CCCC(Br)C2=O` (stereo not given) and `COc1cc(C2CC(c3cccc(Br)c3)=NN2C(C)=O)cc(OC)c1OC` (stereo not given) cannot be ordered by TGI: over 30 µM for the first, over 65.4 µM for the second.

`COc1ccc(-n2cc(-c3cc(OC)c(OC)c(OC)c3)c(C(=O)C(F)(F)F)c2C)cc1` and `CS(=O)(=O)Nc1ccc2c(c1)oc(=O)c1ccccc12` cannot be ordered by TGI: over 100 µM for the first, over 100 µM for the second.

Going from `COc1ccc(-n2cc(-c3cc(OC)c(OC)c(OC)c3)c(C(=O)C(F)(F)F)c2C)cc1` to `COc1cc(C2CC(c3cccc(Br)c3)=NN2C(C)=O)cc(OC)c1OC` (stereo not given), the GI50 falls from over 100000 nM to 771 nM.

test system: CAKI-1 renal; test: growth of human tumour cells (NCI), 48 h

Compared with `COc1ccc2c(c1)CCCC(Br)C2=O` (stereo not given), `COc1cc(C2CC(c3cccc(Br)c3)=NN2C(C)=O)cc(OC)c1OC` (stereo not given) is 5.7-fold higher in TGI: 9.45 µM for the first, 54.1 µM for the second.

`COc1ccc(-n2cc(-c3cc(OC)c(OC)c(OC)c3)c(C(=O)C(F)(F)F)c2C)cc1` and `CS(=O)(=O)Nc1ccc2c(c1)oc(=O)c1ccccc12` cannot be ordered by TGI: over 100 µM for the first, over 100 µM for the second.

In order of rising GI50:
1. COc1cc(C2CC(c3cccc(Br)c3)=NN2C(C)=O)cc(OC)c1OC (stereo not given)  0.282 µM
2. COc1ccc(-n2cc(-c3cc(OC)c(OC)c(OC)c3)c(C(=O)C(F)(F)F)c2C)cc1  73.8 µM

test system: COLO 205 colon; test: growth of human tumour cells (NCI), 48 h

First: COc1ccc2c(c1)CCCC(Br)C2=O (stereo not given)
Second: COc1cc(C2CC(c3cccc(Br)c3)=NN2C(C)=O)cc(OC)c1OC (stereo not given)
The TGI of the first is 14-fold higher: 10.9 µM for the first, 0.802 µM for the second.

`COc1ccc(-n2cc(-c3cc(OC)c(OC)c(OC)c3)c(C(=O)C(F)(F)F)c2C)cc1` and `CS(=O)(=O)Nc1ccc2c(c1)oc(=O)c1ccccc12` cannot be ordered by TGI: over 100 µM for the first, over 100 µM for the second.

In order of falling GI50:
1. COc1ccc(-n2cc(-c3cc(OC)c(OC)c(OC)c3)c(C(=O)C(F)(F)F)c2C)cc1  65.2 µM
2. COc1cc(C2CC(c3cccc(Br)c3)=NN2C(C)=O)cc(OC)c1OC (stereo not given)  0.256 µM

test system: HCT-15 colon; test: growth of human tumour cells (NCI), 48 h

Going from `COc1ccc2c(c1)CCCC(Br)C2=O` (stereo not given) to `COc1cc(C2CC(c3cccc(Br)c3)=NN2C(C)=O)cc(OC)c1OC` (stereo not given), the TGI rises from 12.7 µM to 29.5 µM (2.3-fold).

`COc1ccc(-n2cc(-c3cc(OC)c(OC)c(OC)c3)c(C(=O)C(F)(F)F)c2C)cc1` and `CS(=O)(=O)Nc1ccc2c(c1)oc(=O)c1ccccc12` cannot be ordered by TGI: over 100 µM for the first, over 100 µM for the second.

In order of rising GI50:
1. COc1cc(C2CC(c3cccc(Br)c3)=NN2C(C)=O)cc(OC)c1OC (stereo not given)  0.328 µM
2. COc1ccc(-n2cc(-c3cc(OC)c(OC)c(OC)c3)c(C(=O)C(F)(F)F)c2C)cc1  59.4 µM

test system: HOP-62 NSCLC; test: growth of human tumour cells (NCI), 48 h

Compared with `COc1ccc2c(c1)CCCC(Br)C2=O` (stereo not given), `COc1cc(C2CC(c3cccc(Br)c3)=NN2C(C)=O)cc(OC)c1OC` (stereo not given) is 1.9-fold higher in TGI: 33.4 µM for the first, 62.8 µM for the second.

`COc1ccc(-n2cc(-c3cc(OC)c(OC)c(OC)c3)c(C(=O)C(F)(F)F)c2C)cc1` and `CS(=O)(=O)Nc1ccc2c(c1)oc(=O)c1ccccc12` cannot be ordered by TGI: over 100 µM for the first, over 100 µM for the second.

Compared with `COc1ccc(-n2cc(-c3cc(OC)c(OC)c(OC)c3)c(C(=O)C(F)(F)F)c2C)cc1`, `COc1cc(C2CC(c3cccc(Br)c3)=NN2C(C)=O)cc(OC)c1OC` (stereo not given) is lower in GI50: over 100 µM for the first, 3.56 µM for the second.

test system: MOLT-4 leukemia; test: growth of human tumour cells (NCI), 48 h

First: COc1ccc2c(c1)CCCC(Br)C2=O (stereo not given)
Second: COc1cc(C2CC(c3cccc(Br)c3)=NN2C(C)=O)cc(OC)c1OC (stereo not given)
The TGI of the first is higher: over 48.5 µM for the first, 5.05 µM for the second.

`COc1ccc(-n2cc(-c3cc(OC)c(OC)c(OC)c3)c(C(=O)C(F)(F)F)c2C)cc1` and `CS(=O)(=O)Nc1ccc2c(c1)oc(=O)c1ccccc12` cannot be ordered by TGI: over 100 µM for the first, over 100 µM for the second.

In order of falling GI50:
1. COc1ccc(-n2cc(-c3cc(OC)c(OC)c(OC)c3)c(C(=O)C(F)(F)F)c2C)cc1  6.02 µM
2. COc1cc(C2CC(c3cccc(Br)c3)=NN2C(C)=O)cc(OC)c1OC (stereo not given)  0.368 µM

test system: OVCAR-4 ovarian; test: growth of human tumour cells (NCI), 48 h

First: COc1ccc2c(c1)CCCC(Br)C2=O (stereo not given)
Second: COc1cc(C2CC(c3cccc(Br)c3)=NN2C(C)=O)cc(OC)c1OC (stereo not given)
The TGI of the first is lower: 20.5 µM for the first, over 100 µM for the second.

`COc1ccc(-n2cc(-c3cc(OC)c(OC)c(OC)c3)c(C(=O)C(F)(F)F)c2C)cc1` and `CS(=O)(=O)Nc1ccc2c(c1)oc(=O)c1ccccc12` cannot be ordered by TGI: over 100 µM for the first, over 100 µM for the second.

In order of falling GI50:
1. COc1ccc(-n2cc(-c3cc(OC)c(OC)c(OC)c3)c(C(=O)C(F)(F)F)c2C)cc1  9.28 µM
2. COc1cc(C2CC(c3cccc(Br)c3)=NN2C(C)=O)cc(OC)c1OC (stereo not given)  0.624 µM

test system: OVCAR-5 ovarian; test: growth of human tumour cells (NCI), 48 h

Going from `COc1ccc2c(c1)CCCC(Br)C2=O` (stereo not given) to `COc1cc(C2CC(c3cccc(Br)c3)=NN2C(C)=O)cc(OC)c1OC` (stereo not given), the TGI rises from 20.8 µM to over 100 µM.

`COc1ccc(-n2cc(-c3cc(OC)c(OC)c(OC)c3)c(C(=O)C(F)(F)F)c2C)cc1` and `CS(=O)(=O)Nc1ccc2c(c1)oc(=O)c1ccccc12` cannot be ordered by TGI: over 100 µM for the first, over 100 µM for the second.

First: COc1ccc(-n2cc(-c3cc(OC)c(OC)c(OC)c3)c(C(=O)C(F)(F)F)c2C)cc1
Second: COc1cc(C2CC(c3cccc(Br)c3)=NN2C(C)=O)cc(OC)c1OC (stereo not given)
The GI50 of the first is higher: over 100000 nM for the first, 2930 nM for the second.

test system: SF-268 CNS; test: growth of human tumour cells (NCI), 48 h

Compared with `COc1ccc2c(c1)CCCC(Br)C2=O` (stereo not given), `COc1cc(C2CC(c3cccc(Br)c3)=NN2C(C)=O)cc(OC)c1OC` (stereo not given) is 6.7-fold higher in TGI: 12.5 µM for the first, 83.3 µM for the second.

`COc1ccc(-n2cc(-c3cc(OC)c(OC)c(OC)c3)c(C(=O)C(F)(F)F)c2C)cc1` and `CS(=O)(=O)Nc1ccc2c(c1)oc(=O)c1ccccc12` cannot be ordered by TGI: over 100 µM for the first, over 100 µM for the second.

In order of rising GI50:
1. COc1cc(C2CC(c3cccc(Br)c3)=NN2C(C)=O)cc(OC)c1OC (stereo not given)  0.785 µM
2. COc1ccc(-n2cc(-c3cc(OC)c(OC)c(OC)c3)c(C(=O)C(F)(F)F)c2C)cc1  99.5 µM

test system: SK-MEL-28 melanoma; test: growth of human tumour cells (NCI), 48 h

Compared with `COc1ccc2c(c1)CCCC(Br)C2=O` (stereo not given), `COc1cc(C2CC(c3cccc(Br)c3)=NN2C(C)=O)cc(OC)c1OC` (stereo not given) is higher in TGI: 23.3 µM for the first, over 77.9 µM for the second.

`COc1ccc(-n2cc(-c3cc(OC)c(OC)c(OC)c3)c(C(=O)C(F)(F)F)c2C)cc1` and `CS(=O)(=O)Nc1ccc2c(c1)oc(=O)c1ccccc12` cannot be ordered by TGI: over 100 µM for the first, over 100 µM for the second.

First: COc1ccc(-n2cc(-c3cc(OC)c(OC)c(OC)c3)c(C(=O)C(F)(F)F)c2C)cc1
Second: COc1cc(C2CC(c3cccc(Br)c3)=NN2C(C)=O)cc(OC)c1OC (stereo not given)
The GI50 of the first is higher: over 100 µM for the first, 3.8 µM for the second.
